# Reference: patent US6815187B1, “Stimulation of angiogenesis via syndecan-4 cytoplasmic domain signaling pathway” (Beth Israel Deaconess Medical Center, priority 1998, dated 2004)
# Where no end group is shown, it is not given here. [ ]: non-standard residue; d: D form. pS = N[C@@H](COP(=O)(O)O)C(=O)O
# Assays:
# [1] = tested on: syndecan-4 cytoplasmic tail phosphorylation in NIH 3T3 cells; experiment: Syndecan-4 cytoplasmic tail phosphorylation stoichiometry (32P/35S double labeling) in NIH 3T3 cells; type: cell-based
# Description: Confluent NIH 3T3 cells were washed twice in phosphate-free DMEM and incubated for 24 h at 37° C. in a 5% CO2 humidified atmosphere in phosphate-free DMEM supplemented with 0.5% fetal bovine serum. The cells were washed twice with methionine, phosphate, and serum-free DMEM and incubated for 6 h in the same medium, supplemented with 400 μCi/ml [^35S]methionine (New England Nuclear, Boston, Mass.). At the onset of the last 2 h of incubation, 500 μCi/ml [^32P]orthophosphoric acid (New England Nuclear) was added to the medium.
# Cells were washed with PBS ([…], 10 mM Na2HPO4, 3.6 mM KCl, 1.8 mM KH2PO4, pH 7.4), dissociated by 0.05% trypsin, 0.5 mM EDTA (Life Technologies, Inc.) in PBS for 10 min at 22° C., and sedimented by 2000×g centrifugation at 4° C. for 5 min. The syndecan-4 ectoplasmic domain was immunoprecipitated from 0.5 ml of medium collected before cell trypsinization or from 0.5 ml of supernatant of the latter centrifugation. The cytoplasmic tail was immunoprecipitated from the pellet after a 30-min extraction at 4° C. in 0.5 mil of lysis buffer supplemented with 100 μM leupeptin, 2 μM pepstatin, and 10 nM okadaic acid (Sigma). Total protein concentrations in each fraction were measured by spectrophotometry at 595 nm (DU 640, Beckman, Fullerton, Calif.) of an aliquot developed for 10 min in Protein Assay Dye Reagent (Bio-Rad). Bovine serum albumin (Life Technologies Inc.) was used as standard.
# The medium, trypsinization supernatant, and extracted pellet fractions were precleared by adding 30 μl of 1:1 (v/v) slurry of protein G plus/protein A-agarose beads (Calbiochem), and 10 μl of nonimmune rabbit serum (Life Technologies Inc.). After a 2-h incubation at 4° C. in rotating tubes, the beads were sedimented by 5 min, 5000×g centrifugation at 4° C. The cleared samples were supplemented with 40 μl of 1:1 (v/v) slurry of the above beads and 10 μl of rabbit polyclonal antiserum (syndecan-4 ectoplasmic domain-specific antiserum was added to the medium and trypsinization supernatant samples, and cytoplasmic tail-specific antiserum was added to the extracted pellet fraction) and incubated in rotating tubes for 18 h at 4° C. The agarose beads were collected by centrifugation as above, washed three times in heparinase digestion buffer, and resuspended in 40 μl of digestion buffer, and the GAG chains of the bead-attached ectoplasmic domains from the medium and from the trypsinization-supernatant were cleaved as above. The ectoplasmic and cytoplasmic tails were dissociated from the beads by a 10-min incubation in SDS buffer at 95° C., and the beads were sedimented by a 5 min, 13,000×g centrifugation at 4° C.
# Immunoprecipitated, full-length syndecan-4 core proteins were resuspended in Laemmli sample buffer (2% SDS, 10% glycerol), 0.5% P-mercaptoethanol, 0.004% bromphenol blue, 50 mM Tris-HCl, pH 6.8) resolved by SDS-PAGE on a 10% slab gel, and transferred to a polyvinylidene fluoride (PVDF) membrane (Immobilon-P, Millipore, Bedford, Mass.) for 12 h at 25 mA in 150 mM glycine, 20 mM Tris-HCl, and 20% methanol. The ectoplasmic and cytoplasmic syndecan-4 domains were resolved on a 15% slab gel and transferred for 90 min at 20 mA in 150 mM glycine, 20 mM Tris-HCl, and 30% methanol to a low porosity PVDF membrane (Immobilon-P^SQ, Millipore). Radiolabeled bands detected by exposure to film (XAR, Kodak, Rochester, N.Y.) were excised, and their radioactivity was measured in both the ^32P and ^35S spectra by scintillation counting (LS 6000IC, Beckman, Fullerton, Calif.). In some cases, the same membranes were used for immunoblotting prior to band excision.
# To determine the stoichiometry of the basal phosphorylation of syndecan-4, as well as the effect of bFGF and of other compounds on this phosphorylation, the cells were doubly labeled with [^35S]methionine and [^32P]orthophosphoric acid. […]
# PKC = settings: commercially available PKC inhibitors; cited from earlier work
# recombinant PKCα = biological target: T1, recombinant PKCα (Homo sapiens, UniProt P17252); experiment: PKC in vitro assay, phosphorylation of PKCβ1 optimal substrate peptide by recombinant PKCα; type: biochemical; settings: 50 μM peptide with cofactors PS, DAG and calcium
# T1 construct: made in house
# Description: Samples (30 μl) consisted of PKCβ1 optimal substrate peptide (100 μM) either with or without syndecan-4 cytoplasmic tail peptides S4c or S4c-P (both at 50 μM) in 25 mM Tris-HCl (pH 7.4), […], 1 mM DTT, 50 μM ATP, and 5 μCi [y-^32P]ATP (New England Nuclear, Boston, Mass.). In some assays the buffer was supplemented with either PIP2 (50 μM), or PS (4 μg/ml), diolein (6.2 μg/ml), and 0.2 mM CaCl2. In PKCδ assays the buffer was supplemented with PS and diolein as above, and with 0.5 mM EGTA. Upon addition of either PKCα (120 ng/ml) or PKCδ (430 ng/ml), samples were incubated at 30° C. for 10 min, and reactions were stopped by boiling in Laemmli sample buffer for 4 min. The samples were resolved on 16.5% Tris-tricine gels (BioRad Laboratories), transferred to PVDF membranes and detected as described previously in Experimental Series I.
# To assess the effect of Ser^183 phosphorylation on syndecan-4-dependent PKC activation, the ability of the 28 amino acid-long syndecan-4 cytoplasmic tail peptide, S4c, and S4c-P peptides to activate recombinant PKCα was studied using the PKCβ1 optimal substrate peptide in an in-vitro assay. The results are graphically illustrated by FIG. 5.
# Densitometry histograms of autoradiographic images of PKC β1 optimal substrate peptide were resolved on 16.5% Tris-tricine gels and then transferred to PVDF membranes (n=3; bars denote SD). […]
# [2] = PIP2 binding assay (filtration of PIP2 micelle-bound peptide)
# Description: PIP2 (from Sigma, dissolved at 2 mg/ml in 20 parts CHCl3, 9 parts MeOH, 1 part H2O, 0.1 part 1N HCl) was dried under N2 and sonicated for 5 min in ice-cold H2O at a final concentration of 1 mg/ml. Syndecan-4 cytoplasmic tail peptides S4c or S4c-P (100 μM) were incubated on ice for 30 min with the indicated concentrations of PIP2 in 10 mM Tris-HCl (pH 7.5), 75 mM KCl, 0.5 mM DTT, in aliquots of 100 μl. The samples were layered on 30 kDA-molecular-mass cutoff cellulose filters (Ultrafree-MC, Millipore, Bedford, Mass.), and spun at 2000 g for 1 min, following the method described in Haarer et al., Mol. Cell Biol. 13: 7864-7873 (1993). The samples (40 μl of each in Laemmli sample buffer, 2% SDS, 10% glycerol, 0.5% β-mercaptoethanol, 0.004% bromophenol blue, 50 mM Tris-HCl, pH 6.8) were resolved by SDS-PAGE on 16.5% Tris-tricine gels (BioRad Laboratories, Hercules, Calif.). Gels were stained with Coomassie Brilliant Blue G-250 (BioRad Laboratories), and images of the stained bands were digitized (DeskScan II on ScanJet 4c, Hewlett Packard) and quantitated by densitometry (ImageQuant, Molecular Dynamics, Sunnyvale, Calif.).
# Both the oligomerization and PKCα activation capacities of the cytoplasmic tail of syndecan-4 have been reported as depending on the presence of PIP2 [Oh et al., J. Biol. Chem. 272: 11805-11811 (1997); Lee et al., J. Biol. Chem. 273: 13022-13029 (1998)]. It was of interest, therefore, to determine whether the phosphorylation of Ser^183 in the cytoplasmic tail of syndecan-4 affects the affinity of the tail to PIP2. To this end, the in-vitro binding between PIP2 micelles and S4c or S4c-P peptides was compared using a filtration assay. The filter retains the PIP2 micelle-bound peptide, while the unbound peptide passes through it. The results are illustrated by FIGS. 7A and 7B respectively.
# Samples were resolved on 16.5% Tris-tricine gels. FIG. 7B graphically illustrates the densitometry results of the gel bands of the S4c (black bars) and S4c-P (white bars) peptides shown in FIG. 7A.
# [3] = tested on: syndecan-4 expression in NIH 3T3 cells; experiment: Syndecan-4 expression level by immunoblotting and densitometry of cell lysates; type: cell-based
# Description: After blocking in PBS containing 5% nonfat milk powder for 1 h at 22° C., the membrane was incubated in the same solution supplemented with 1:3000 (v/v) dilution of either ectoplasmic or cytoplasmic tail-specific antiserum for 2 h, washed with PBS, and incubated for 1 h in 5% milk powder-PBS containing 1:2000 diluted goat anti-rabbit IgG conjugated to peroxidase (Vector Laboratories, Burlingame, Calif.). The secondary antibody was detected, after […] PBS wash, by chemiluminescence (Western Blot, Chemiluminescence Reagent Plus, New England Nuclear). Molecular weights were estimated by comparison with the electrophoretic mobility of standards (Kaleidoscope Prestained Standards, Bio-Rad). Densitometry of digitized images of immunoprobed membranes (ScanJet 4c, Hewlett Packard) was performed using ImageQuant software (Molecular Dynamics, Sunnyvale, Calif.).
# If, contrary to our assumption, the incorporation efficiency of ^35S is higher than that of ^32P, the bFGF-induced decrease in syndecan-4 phosphorylation could solely result from bFGF up-regulation of syndecan-4 synthesis. […] The syndecan-4 bands, which similar to immunoprecipitated samples (FIG. 2A) ran at an approximate molecular mass of […], were detected with the antiserum specific to the ectoplasmic domain; and the amount of protein in each band was quantified by densiometry. […]
compound,measurement,setting,value
Cn1c2ccccc2c2c3c(c4c5ccccc5n(CCC#N)c4c21)CNC3=O [Gö 6976],phosphorylation of syndecan-4,[1]; Gö 6976 up to 100 nM in PMA (0.5 μM)-treated cells,not reduced
same,IC50,PKC,8 nM
"CCCCCCCCCCCCCC(=O)O[C@@H]1[C@@H](C)[C@@]2(O)[C@@H](C=C(CO)C[C@]3(O)C(=O)C(C)=C[C@@H]23)[C@@H]2C(C)(C)[C@]12OC(C)=O [PMA, Phorbol-12-myristate-13-acetate]",syndecan-4 phosphorylation relative to basal level,[1]; 0.5 μM PMA,~3 fold
same,stoichiometry of the phosphorylation of syndecan-4,"[1]; 0.5 μM PMA during last 5 h of serum-free starvation, n=3",0.81±0.33 mol Pi/mol syndecan-4
COc1ccc2c(c[n+](C)c3c4cc5c(cc4ccc23)OCO5)c1OC [chelerythrine],phosphorylation of syndecan-4,[1]; 6 μM chelerythrine together with 0.5 μM PMA,undetectable level
same,concentration above which syndecan-4 phosphorylation started to decline,[1]; applied together with 0.5 μM PMA,above 1.5 μM
Calphostin,IC50,PKC,50 nM
S4c-P: similar syndecan-4 cytoplasmic tail peptide with a phosphorylated Ser (RMKKKDEG[pS]YDLGKKPIYKKAPTNEFYA),effect on catalytic activity of PKCα,recombinant PKCα,"neither the S4c, nor the S4c-P peptides had any additional effect"
same,Kd,"[2]; calculated from densitometry of filter flow-through, FIG. 7, read-out: dissociation constant (Kd) for PIP2",232000 nM
same,peptide passed through the filter,[2]; peptide:PIP2 molar ratio of 1:2,50%
same,peptide retained by the filter,"[2]; peptide:PIP2 molar ratio of 2:1, 100 μM peptide",none
basic fibrocyte growth factor [bFGF],phosphorylation stoichiometry of syndecan-4,"[1]; 10 ng/ml bFGF during last 5 h of serum-free starvation, n=5, basal 0.31±0.12",0.16±0.02 mol Pi/mol syndecan-4
same,phosphorylation stoichiometry of syndecan-4,"[1]; 20 and 30 ng/ml bFGF, n=3",0.12±0.06 mol Pi/mol syndecan-4
same,"level of syndecan-4 expression, % of control cells",[3]; 10 ng/ml bFGF,85%
same,"level of syndecan-4 expression, % of control cells",[3]; 30 ng/ml bFGF,93%
calyculin,syndecan-4 phosphorylation in bFGF-treated cells,[1]; 5 nM calyculin applied with 10 ng/ml bFGF,basal level
same,increase of syndecan-4 phosphorylation relative to basal level,[1]; 5 nM calyculin in the absence of bFGF,more than 2.5 fold
